pIC50: −log10 of the molar value.

T1 sequence (P04629 441-796): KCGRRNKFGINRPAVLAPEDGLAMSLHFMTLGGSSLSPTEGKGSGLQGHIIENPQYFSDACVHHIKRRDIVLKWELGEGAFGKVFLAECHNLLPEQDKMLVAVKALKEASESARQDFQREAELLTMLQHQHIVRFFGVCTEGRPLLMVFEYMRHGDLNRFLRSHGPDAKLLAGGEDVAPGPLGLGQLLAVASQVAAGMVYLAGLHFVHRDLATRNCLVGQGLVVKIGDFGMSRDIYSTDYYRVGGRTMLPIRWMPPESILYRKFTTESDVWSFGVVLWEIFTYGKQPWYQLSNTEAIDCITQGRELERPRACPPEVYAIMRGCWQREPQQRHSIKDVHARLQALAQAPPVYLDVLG

This assay addresses T1, TRKA (Homo sapiens, UniProt P04629).
T1 construct: aa 441-; 4 nM; 40 uM; 35 min; (NTRK1); 796; His; purchased Invitrogen PV3144
The assay is described as follows: Isolated TRK enzyme assay (HTRF KinEASE-TK kit, PV3144 TrkA enzyme assay). Particulars: recombinant His-tagged cytoplasmic domain aa 441-796, 4 nM enzyme, 40 uM ATP, 35 min, arithmetic mean where more than one reading. Format: biochemical. The protocol: Isolated TRK Enzyme assays use the HTRF KinEASE-TK kit (Cisbio Cat#62TKOPEJ) with recombinant His-tagged cytoplasmic domains of TRKA receptor sourced from Invitrogen (see table below). This activity-assay measures the phosphorylation of tyrosine residues within a substrate from the HTRF kit which has been validated by Cisbio for a variety of tyrosine kinases including the TRK receptors.
0.5 mM stock solutions of test compounds are prepared and serially diluted in 100% DMSO. […] Greiner low volume black plates containing 0.2 ul of serially diluted compound, standard and HPE/ZPE are created using the Bravo nanolitre dispenser. 1× enzyme buffer is prepared from 5× Enzymatic Buffer from the Cisbio KinEASE TK kit using MilliQ water. The buffer is then supplemented with 10 mM MgCl and 2 mM DTT (both from Sigma). […] 2×FAC of enzyme and 2×FAC ATP diluted in 1× complete enzyme buffer is incubated at room temperature for 20 minutes to preactivate the enzyme. Following this preactivation step, 5 ul/well of enzyme+ATP mix is added using a Multidrop Micro to the assay plate, spotted with 0.2 ul 100% DMSO compound. This is left for 20 mins at room temperature before adding 5 ul of 2 uM TK-substrate-Biotin (from the Cisbio kit) diluted in 1× enzyme buffer (1 uM FAC) using the Multidrop Micro. The reaction is incubated at room temperature for the optimized assay reaction time (see table).
After the Detection Reagent addition, plates are covered and incubated at room temperature for 60 minutes. HTRF signal is read using an Envision reader, measured as a ratio of emissions at two different wavelengths, 620 nm and 665 nm. […] Test compound data are expressed as percentage inhibition defined by HPE and ZPE values for each plate.
Percentage inhibition in the presence of test compound is plotted against compound concentration on a log scale to determine an IC50 from the resultant sigmoid curve. Cell Based Assays were carried out using Cell lines from DiscoveRx utilising their PathHunter technology and reagents in an antagonist assay:
Where more than one reading was taken, the arithmetic mean is presented.
Background: In TR-FRET formats the signal depends on donor and acceptor labels being close together.
As usually defined, the pIC50 is −log10 of the IC50, conventionally taken in molar units. Consider `CC(C)(O)CNC(=O)c1cnc(N)c(OC2CN(C(=O)Cc3ccc(OC(F)(F)F)cc3)CC2(F)F)c1` (racemic) [Example 10, (S)-6-amino-5-[(4,4-difluoro-1-{[4-(trifluoromethoxy)phenyl]acetyl}pyrrolidin-3-yl)oxy]-N-(2-hydroxy-2-methylpropyl)pyridine-3-carboxamide], for which the pIC50 is 5.06. For the compound `NC(=O)c1cnc(N)c(OCC2CN(C(=O)Cc3ccc(OC(F)(F)F)cc3)CC2(F)F)c1` (racemic) [Example 13, Racemic-6-amino-5-[(4,4-difluoro-1-{[4-(trifluoromethoxy)phenyl]acetyl}pyrrolidin-3-yl)methoxy]pyridine-3-carboxamide], the negative logarithm of the IC50 (pIC50) is 7.52.

`CNC(=O)c1cnc(N)c(OC2CN(C(=O)Cc3ccc(OC(F)(F)F)cc3)CC2(C)OC)c1` (racemic) [Example 24, Racemic-6-amino-5-[(4-methoxy-4-methyl-1-{[4-(trifluoromethoxy)phenyl]acetyl}pyrrolidin-3-yl)oxy]-N-methylpyridine-3-carboxamide]: the pIC50 is 7.26.

For `CCN(CC)C(=O)c1cnc(N)c(OC2CN(C(=O)Cc3ccc(OC(F)(F)F)cc3)CC2(C)OC)c1` (racemic) [Example 25, Racemic-6-amino-N,N-diethyl-5-[(4-methoxy-4-methyl-1-{[4-(trifluoromethoxy)phenyl]acetyl}pyrrolidin-3-yl)oxy]pyridine-3-carboxamide], the pIC50 was 6.89. In the case of `NC(=O)c1cnc(N)c(COC2CN(C(=O)Cc3ccc(OC(F)(F)F)cc3)CC2(F)F)c1` (single isomer, unassigned) [Example 5] it was 7.97; in that of `NC(=O)c1cnc(N)c(COC2CN(C(=O)Cc3ccc(OC(F)(F)F)cc3)CC2(F)F)c1` (single isomer, unassigned) [Example 6], 6.20; in that of `Nc1ncc(C(=O)NCCO)cc1OC1CN(C(=O)Cc2ccc(OC(F)(F)F)cc2)CC1(F)F` (single isomer, unassigned) [Example 8], 6.83.

For the compound `CNC(=O)c1cnc(N)c(OCC2CN(C(=O)Cc3ccc(OC(F)(F)F)cc3)CC2(F)F)c1` (single isomer, unassigned) [Example 11], the negative-log IC50 (pIC50) was 7.94. The result for `CNC(=O)c1cnc(N)c(OCC2CN(C(=O)Cc3ccc(OC(F)(F)F)cc3)CC2(F)F)c1` (single isomer, unassigned) [Example 12] reads 5.90.

Turning to `NC(=O)c1cnc(N)c(OCC2CN(C(=O)Cc3ccc(OC(F)(F)F)cc3)CC2(F)F)c1` (single isomer, unassigned) [Example 15], the pIC50 is 7.80. As for `CNC(=O)c1cnc(N)c(OC2CN(C(=O)Cc3ccc(OC(F)(F)F)cc3)CC23CC3)c1` (stereo not drawn) [Example 16, 6-amino-N-methyl-5-[(5-{[4-(trifluoromethoxy)phenyl]acetyl}-5-azaspiro[2.4]hept-7-yl)oxy]pyridine-3-carboxamide], the pIC50 is 7.14. With `CNC(=O)c1cnc(N)c(O[C@H]2CN(C(=O)Cc3ccc(OC(F)(F)F)cc3)C[C@@H]2C)c1` [Example 17, (3R,4S)-6-amino-N-methyl-5-[(4-methyl-1-{[4-(trifluoromethoxy)phenyl]acetyl}pyrrolidin-3-yl)oxy]pyridine-3-carboxamide], the pIC50 was 6.98. The result for `NC(=O)c1cnc(N)c(OC2CN(C(=O)Cc3ccc(OC(F)(F)F)cc3)CC23CC3)c1` (stereo not drawn) [Example 18, 6-amino-5-[(5-{[4-(trifluoromethoxy)phenyl]acetyl}-5-azaspiro[2.4]hept-7-yl)oxy]pyridine-3-carboxamide] reads 6.96. In the case of `CC1(C)CN(C(=O)Cc2ccc(OC(F)(F)F)cc2)C[C@@H]1Oc1cc(C(N)=O)cnc1N` [Example 19, (R)-6-amino-5-[(4,4-dimethyl-1-{[4-(trifluoromethoxy)phenyl]acetyl}pyrrolidin-3-yl)oxy]pyridine-3-carboxamide] it was 7.93; in that of `CNC(=O)c1cnc(N)c(O[C@H]2CN(C(=O)Cc3ccc(OC(F)(F)F)cc3)CC2(C)C)c1` [Example 20, (R)-6-amino-5-[(4,4-dimethyl-1-{[4-(trifluoromethoxy)phenyl]acetyl}pyrrolidin-3-yl)oxy]-N-methylpyridine-3-carboxamide], 7.91; in that of `CCNC(=O)c1cnc(N)c(O[C@H]2CN(C(=O)Cc3ccc(OC(F)(F)F)cc3)C[C@@H]2C)c1` [Example 21, (3R,4S)-6-amino-N-ethyl-5-[(4-methyl-1-{[4-(trifluoromethoxy)phenyl]acetyl}pyrrolidin-3-yl)oxy]pyridine-3-carboxamide], 6.90. The result for `C[C@H]1CN(C(=O)Cc2ccc(OC(F)(F)F)cc2)C[C@@H]1Oc1cc(C(=O)NCC#N)cnc1N` [Example 22, (3R,4S)-6-amino-N-(cyanomethyl)-5-[(4-methyl-1-{[4-(trifluoromethoxy)phenyl]acetyl}pyrrolidin-3-yl)oxy]pyridine-3-carboxamide] reads 6.48; that for `C[C@H]1CN(C(=O)Cc2ccc(OC(F)(F)F)cc2)C[C@@H]1Oc1cc(C(=O)NCC(C)(C)O)cnc1N` [Example 23, (3R,4S)-6-amino-N-(2-hydroxy-2-methylpropyl)-5-[(4-methyl-1-{[4-(trifluoromethoxy)phenyl]acetyl}pyrrolidin-3-yl)oxy]pyridine-3-carboxamide], 5.68.

The values above are taken from US20160221989A1, “N-Acylpyrrolidine Ether Tropomyosin-Related Kinase Inhibitors” (Pfizer Inc., priority 2014, published 2016).
